Test results reported in PubChem BioAssay (NCI).
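96-well plates; 48 h exposure; 5 concentrations. Endpoints by linear interpolation between flanking doses. Not reached: highest tested concentration assigned. At the TGI there is no net growth.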

Tests used:
Assay in all cases: inhibition of tumour cell growth, NCI panel, 48 h
[1] = system: UACC-257 melanoma
[2] = system: A549 NSCLC
[3] = system: SR leukemia
[4] = system: HCC-2998 colon
[5] = system: UO-31 renal
[6] = system: NCI-H23 lung
[7] = system: NCI/ADR-RES ovarian
[8] = system: RPMI-8226 leukemia
[9] = system: MCF7 breast
[10] = system: EKVX NSCLC
[11] = system: MDA-MB-231 breast
[12] = system: DU-145 prostate
[13] = system: KM20L2 colon
[14] = system: DMS 114 small cell lung
[15] = system: DMS 273 small cell lung
[16] = system: SNB-78 CNS
[17] = system: M19-MEL melanoma

Row | Compound | TGI [1] | TGI [2] | TGI [3] | TGI [4] | TGI [5] | TGI [6] | TGI [7] | TGI [8] | TGI [9] | TGI [10] | TGI [11] | TGI [12] | TGI [13] | TGI [14] | TGI [15] | TGI [16] | TGI [17]
1 | CC(=O)C1=CN=C2C(=O)N(c3ccccc3)N(C)C12C (centres undefined) | > 100 µM | > 100 µM | > 100 µM | > 100 µM | > 100 µM | > 100 µM | > 100 µM | > 100 µM | > 100 µM | > 100 µM | > 100 µM | > 100 µM |  |  |  |  | 
2 | COC(=O)[C@]1(NC(=O)c2ccccc2)C[C@H]1C=O | > 100 µM | > 100 µM | 53.9 µM | > 100 µM | > 100 µM | > 100 µM | > 100 µM | > 100 µM | > 100 µM | > 100 µM | > 100 µM | > 100 µM |  |  |  |  | 
3 | CC1(c2ccccc2Cl)C(C#N)C(=O)NC(=O)C1C#N (centres undefined) | > 100 µM | > 100 µM |  | > 100 µM | > 100 µM | > 100 µM |  | 59.6 µM |  | > 100 µM |  |  | > 100 µM | > 100 µM | > 100 µM | > 100 µM | > 100 µM
4 | CCOC(=O)CNC(=O)C(CSC(=O)N(O)c1ccc(Cl)cc1)NC(=O)CCC(N)C(=O)OCC (centres undefined) | > 50 µM | > 50 µM | > 50 µM | > 50 µM | > 50 µM | > 50 µM | > 50 µM | 46 µM | > 50 µM | > 50 µM | > 50 µM | > 50 µM |  |  |  |  | 
5 | NC(=O)C(=O)C1CCC2=C(Sc3ccccc3N2)C1=O (centres undefined) | > 100 µM | > 100 µM |  | > 100 µM | > 100 µM | > 100 µM |  | > 100 µM |  | > 100 µM |  |  | > 100 µM | > 100 µM |  | > 100 µM | > 100 µM
6 | COc1ccc(N2C(=O)/C(=C\c3cc(OC)c(OC)c(OC)c3)SC2c2ccccc2)cc1 (centres undefined) | > 100 µM | > 100 µM | > 100 µM | > 100 µM | > 100 µM | > 100 µM | > 100 µM | > 100 µM | > 100 µM | > 100 µM | > 100 µM | > 100 µM |  |  |  |  | 
7 | c1ccc2oc(-c3ccc(-c4nc5ccccc5o4)c4c3CC4)nc2c1 | > 100 µM | > 100 µM | > 100 µM | > 100 µM | > 100 µM | > 100 µM | > 100 µM | > 100 µM | > 100 µM | > 100 µM | > 100 µM | > 100 µM |  |  |  |  | 
8 | CCOP1(=O)C=C(C)C(Cl)=C(C)C1 (centres undefined) | 88.7 µM | 65 µM | > 100 µM | > 100 µM | > 100 µM | 46.2 µM |  | 62.6 µM |  | > 100 µM |  |  | > 100 µM | 44.9 µM | 30.8 µM |  | > 100 µM
9 | CC(=O)NC1C(OCc2ccccc2)OC(CO)C(O)C1OC(C)C(=O)NC(C)C(=O)NC(CCC(=O)NCCCCNc1c2ccccc2nc2cccc([N+](=O)[O-])c12)C(N)=O (centres undefined) | 0.509 µM | 0.838 µM | 0.0539 µM | 0.0588 µM | 0.339 µM | 0.221 µM | 0.524 µM | 0.0629 µM | 0.652 µM | 0.322 µM | 0.118 µM | 0.049 µM |  |  |  |  | 
10 | Cc1ccccc1NC(=O)C(=O)C(C#N)c1ccccc1C (centres undefined) | > 100 µM | > 100 µM | > 100 µM | > 100 µM | > 100 µM | > 100 µM |  | > 100 µM |  | > 100 µM |  |  | > 100 µM | > 100 µM | > 100 µM | > 100 µM | 
11 | CCc1c(C)c(C#N)c(=S)n(C2OC(COC(C)=O)C(OC(C)=O)C(OC(C)=O)C2OC(C)=O)c1-c1ccccc1 (centres undefined) | > 31.6 µM | > 31.6 µM | > 31.6 µM | > 31.6 µM | > 31.6 µM | > 31.6 µM | > 31.6 µM | > 100 µM | > 31.6 µM | > 100 µM | > 31.6 µM | > 31.6 µM |  |  |  |  | 
12 | CC1=NC(=Cc2ccccc2O)C(=O)N1n1c(-c2ccccc2)nc2ccccc2c1=O | > 100 µM | > 100 µM | > 100 µM | > 100 µM | > 100 µM | > 100 µM | 93.5 µM | > 100 µM | 74.2 µM | > 100 µM | > 100 µM | > 100 µM |  |  |  |  | 
13 | C/C(=C\CBr)CCC(Br)C(C)(C)Cl (centres undefined) | > 100 µM | > 100 µM | > 100 µM |  | > 100 µM | > 100 µM |  | > 100 µM |  |  |  |  |  | > 100 µM | > 100 µM | > 100 µM | > 100 µM
14 | CC1CN=C(N(Cc2ccccc2)C(=O)Nc2ccc(Cl)c(Cl)c2)S1 (centres undefined) | > 100 µM | > 100 µM | > 100 µM | > 10 µM | 97.9 µM | > 100 µM | > 100 µM | > 100 µM | > 100 µM | > 100 µM | 86.6 µM | > 100 µM |  |  |  |  | 
15 | COc1c(=O)cc2cc[nH]c3ccn(C)c1c23 | > 100 µM | > 100 µM | > 100 µM | > 100 µM | > 100 µM | > 100 µM | > 100 µM | > 100 µM | > 100 µM | > 100 µM | > 100 µM | > 100 µM |  |  |  |  | 
16 | COc1ccc(/C(Br)=C2\OC(=O)c3ccccc32)cc1 | > 10 µM | > 10 µM | > 10 µM | > 10 µM | > 10 µM | > 10 µM | > 10 µM | > 10 µM | > 10 µM | > 10 µM | > 10 µM | > 10 µM |  |  |  |  | 
17 | Nc1c([N+](=O)[O-])nc(Cl)c2nncn12 | > 100 µM | > 100 µM | 41.9 µM | > 100 µM | > 100 µM | > 100 µM |  | > 69.7 µM |  | > 100 µM |  |  | > 100 µM | > 57.4 µM | 31.3 µM | > 100 µM | > 100 µM
18 | CC12CCC(=O)N1c1ccc([N+](=O)[O-])cc1N2 (centres undefined) | > 100 µM | > 100 µM | > 100 µM |  | > 100 µM | > 100 µM |  | > 100 µM |  | > 100 µM |  |  | > 100 µM | > 100 µM | > 100 µM | > 100 µM | > 100 µM
